For one assay, the target named is FGFR1(h) (Homo sapiens, UniProt P11362). Nature of the assay: Kinase assay, FGFR1(h). The format is biochemical. Conditions: 1 μM. The protocol:
(§1) Kinase assay protocols well known to those of ordinary skill in the art were used. Specifically, the buffer composition was as follows: 20 mM MOPS, 1 mM EDTA, 0.01% Brij-35, 5% Glycerol, 0.1% β-mercaptoethanol, 1 mg/mL BSA. Test compounds were initially dissolved in DMSO at the desired concentration, then serially diluted to the kinase assay buffer. In a final reaction volume of 25 μL FGFR1(h) (5-10 mU) and KDR(h) (5-10 mU) are incubated with 8 mM MOPS pH 7.0, 0.2 mM EDTA, 200 μM LRRASLG (Kemptide), 10 mM magnesium acetate and [γ^33P-ATP]. The reaction was initiated by the addition of the MgATP mix. After incubation for 40 minutes at room temperature, the reaction was stopped by addition of 5 μL of a 3% phosphoric acid solution. Ten L of the reaction was then spotted onto a P30 filter mat and washed three times for 5 minutes in 50 mM phosphoric acid and once in methanol prior to drying and scintillation counting. Wells containing substrate but no kinase and wells containing a phosphopeptide control were used to set 0% and 100% phosphorylation value, respectively.
(§2) Of all of the steps in developing a drug, the hardest is finding promising compounds. (See, e.g., Malo et al., “Statistical practice in high-throughput screening data analysis,” Nature Biotechnology, 2006, 24, 167-75.) Kinase inhibitors often also have an anti-proliferative effect. […] The kinase inhibitory activity Compound 19 was tested using the kinase assay described in Example 3. […] These mutations in the tested kinases are thought to play an important role in transformation of some cancers.

In another assay the target is KDR(h) (Homo sapiens, UniProt P35968). The assay is described as follows: Kinase assay, KDR(h). The format is biochemical. The method, then:
as §1, §2

The next assay deals with KG1a. The assay is described as follows: Inhibition of proliferation (CellTiterblue, 72 hr), KG1a. The format is cell-based, human. Conditions: Homo sapiens, KG-1a; 72 hr. The protocol:
A number of studies were performed to analyze the consequences of tyrosine kinase inhibition in cell lines. To do this, 1000 cells are seeded in 27 μl/well in 384-well microplates, which are then placed in a humidified CO2 incubator at 37° C. overnight. The next day, 3 μl/well of 10× concentrated drug is added and the plates are returned to the incubator for 72 hr. After 72 hr incubation, plates are removed and 6 μl/well CellTiterblue (Promega) viability reagent is added. Plates are returned to the incubator for 3 hrs, after which fluorescence measurements are read on the Victor X3 plate reader (Perkin Elmer). Data are analyzed using Excel (Microsoft), and GI50 values are determined using Prism (Graphpad).

Here are results for 40 molecules from patent US20180215734A1, “PYRIMIDINE DERIVATIVES AS KINASE INHIBITORS AND THEIR THERAPEUTICAL APPLICATIONS” (NantBioScience, Inc., priority 2016, published 2018).

FGFR1(h), sequence (P11362 22-822): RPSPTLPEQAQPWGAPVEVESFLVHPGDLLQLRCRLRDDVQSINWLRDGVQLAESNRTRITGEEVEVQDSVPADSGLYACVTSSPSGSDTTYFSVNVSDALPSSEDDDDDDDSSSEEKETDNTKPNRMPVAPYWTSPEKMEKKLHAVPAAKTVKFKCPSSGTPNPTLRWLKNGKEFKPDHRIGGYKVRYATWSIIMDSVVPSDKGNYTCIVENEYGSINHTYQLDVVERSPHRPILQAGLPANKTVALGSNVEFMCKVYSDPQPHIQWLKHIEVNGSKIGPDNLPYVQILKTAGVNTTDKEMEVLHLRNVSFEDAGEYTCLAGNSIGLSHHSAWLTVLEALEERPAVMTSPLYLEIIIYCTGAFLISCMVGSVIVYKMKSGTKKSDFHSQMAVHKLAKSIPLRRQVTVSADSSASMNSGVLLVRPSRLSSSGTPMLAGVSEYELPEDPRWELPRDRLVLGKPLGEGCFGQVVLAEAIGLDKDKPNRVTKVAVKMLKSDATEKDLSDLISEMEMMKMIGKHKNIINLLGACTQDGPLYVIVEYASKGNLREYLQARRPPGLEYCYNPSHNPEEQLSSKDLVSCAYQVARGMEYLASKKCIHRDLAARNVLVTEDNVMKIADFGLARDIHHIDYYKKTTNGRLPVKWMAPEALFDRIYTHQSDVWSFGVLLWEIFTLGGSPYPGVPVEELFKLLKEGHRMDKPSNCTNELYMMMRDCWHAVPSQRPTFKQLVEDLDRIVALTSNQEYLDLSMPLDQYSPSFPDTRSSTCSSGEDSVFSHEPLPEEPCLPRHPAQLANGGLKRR
KDR(h), sequence (P35968 20-1356): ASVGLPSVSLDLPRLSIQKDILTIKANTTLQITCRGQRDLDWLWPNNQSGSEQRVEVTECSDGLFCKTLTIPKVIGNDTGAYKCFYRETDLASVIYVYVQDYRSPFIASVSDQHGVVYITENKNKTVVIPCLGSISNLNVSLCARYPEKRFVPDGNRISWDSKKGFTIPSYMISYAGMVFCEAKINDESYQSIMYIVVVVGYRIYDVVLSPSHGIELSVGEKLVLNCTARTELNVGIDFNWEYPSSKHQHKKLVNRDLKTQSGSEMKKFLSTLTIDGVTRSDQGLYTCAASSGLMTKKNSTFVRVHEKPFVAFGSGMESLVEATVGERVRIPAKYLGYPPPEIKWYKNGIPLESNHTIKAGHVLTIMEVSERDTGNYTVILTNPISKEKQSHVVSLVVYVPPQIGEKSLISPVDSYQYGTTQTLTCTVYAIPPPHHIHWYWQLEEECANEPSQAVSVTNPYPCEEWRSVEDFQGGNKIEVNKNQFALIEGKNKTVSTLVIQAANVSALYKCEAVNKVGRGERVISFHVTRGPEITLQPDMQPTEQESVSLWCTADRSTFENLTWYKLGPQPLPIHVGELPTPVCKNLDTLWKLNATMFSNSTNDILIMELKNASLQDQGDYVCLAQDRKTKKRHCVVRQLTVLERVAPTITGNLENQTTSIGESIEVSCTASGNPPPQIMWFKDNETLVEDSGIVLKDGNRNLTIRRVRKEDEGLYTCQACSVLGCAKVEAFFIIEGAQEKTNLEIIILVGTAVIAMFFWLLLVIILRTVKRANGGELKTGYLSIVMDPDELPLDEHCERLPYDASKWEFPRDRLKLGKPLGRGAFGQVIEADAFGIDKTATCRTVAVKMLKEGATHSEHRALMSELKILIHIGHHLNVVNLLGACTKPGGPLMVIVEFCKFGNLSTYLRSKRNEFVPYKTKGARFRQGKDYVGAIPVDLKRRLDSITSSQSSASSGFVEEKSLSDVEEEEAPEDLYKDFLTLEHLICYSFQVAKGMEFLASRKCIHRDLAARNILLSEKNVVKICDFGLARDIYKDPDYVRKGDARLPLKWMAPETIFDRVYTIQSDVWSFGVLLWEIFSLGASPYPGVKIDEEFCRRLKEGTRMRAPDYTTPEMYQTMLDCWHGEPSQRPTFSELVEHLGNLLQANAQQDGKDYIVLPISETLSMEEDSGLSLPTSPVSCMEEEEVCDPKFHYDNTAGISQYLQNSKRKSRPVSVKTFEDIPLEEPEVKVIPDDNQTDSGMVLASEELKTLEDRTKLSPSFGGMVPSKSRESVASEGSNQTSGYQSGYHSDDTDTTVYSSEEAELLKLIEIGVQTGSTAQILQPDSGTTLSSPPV

As for `Cc1cc2c(F)c(Oc3ncnc(Nc4ccc(C(=O)N5CCN(C)CC5)cc4)c3C#N)ccc2[nH]1` [Compound 6], the results for the inhibition at 1 µM against FGFR1(h) and against KDR(h) were 85% and 95%, respectively.

Take `Cc1cc2c(F)c(Oc3ncnc(Nc4ccc(F)cc4)c3C#N)cc(F)c2[nH]1` [Compound 39]: the inhibition at 1 µM on FGFR1(h) came to 91%; on KDR(h), 36%.

Take `Cc1cc2c(F)c(Oc3ncnc(Nc4cccc(N5CCOCC5)c4)c3C#N)ccc2[nH]1` [Compound 21]: the inhibition at 1 µM against FGFR1(h) was 100%; against KDR(h), 96%.

As for `Cc1cc2c(F)c(Oc3ncnc(Nc4ccc(NS(C)(=O)=O)cc4)c3C#N)ccc2[nH]1` [Compound 26], the results for the inhibition at 1 µM at FGFR1(h) and on KDR(h) were 97% and 96%, respectively.

Regarding `CCN1CCN(c2ccc(Nc3ncnc(Oc4ccc5[nH]c(C)cc5c4F)c3C(F)F)cc2)CC1` [Compound 5], the results for the inhibition at 1 µM at FGFR1(h) and against KDR(h) were 26% and 9%, respectively.

For the molecule `CC(=O)Nc1ccc(Nc2ncnc(Oc3ccc4[nH]c(C)cc4c3F)c2C#N)cc1` [Compound 25, N-(4-((5-cyano-6-((4-fluoro-2-methyl-1H-indol-5-yl)oxy)pyrimidin-4-yl)amino)phenyl)acetamide], in the assay with KG1a, growth was halved (GI50) at 30 nM. In addition, the inhibition at 1 µM on FGFR1(h) was found to be 99%; at KDR(h), 96%.

With `COC(=O)c1ccc(Nc2ncnc(Oc3cc(F)c4[nH]c(C)cc4c3F)c2C#N)cc1` [Compound 54], the inhibition at 1 µM stood at 89% on FGFR1(h) and 17% against KDR(h).

On to `Cc1cc2c(F)c(Oc3ncnc(Nc4ccc(C)c(S(N)(=O)=O)c4)c3C#N)ccc2[nH]1` [Compound 15], for which the inhibition at 1 µM stood at 94% against FGFR1(h) and 96% on KDR(h).

`Cc1cc2c(F)c(Oc3ncnc(Nc4ccc(N5CCNC(=O)C5)cc4)c3C#N)ccc2[nH]1` [Compound 27]: the inhibition at 1 µM at FGFR1(h) turned out to be 99%; against KDR(h), 97%.

In the case of `Cc1cc2c(F)c(Oc3ncnc(Nc4ccccc4)c3C#N)ccc2[nH]1` [Compound 23], the inhibition at 1 µM against FGFR1(h) came out at 98%; against KDR(h), 96%.

`Cc1cc2c(F)c(Oc3ncnc(Nc4ccc(-n5ccnc5C)cc4)c3C#N)ccc2[nH]1` [Compound 13]: the figures for the inhibition at 1 µM against FGFR1(h) and on KDR(h) were 48% and 85%, respectively.

For the molecule `Cc1cc2c(F)c(Oc3ncnc(Nc4ccccc4O)c3C#N)cc(F)c2[nH]1` [Compound 43], the inhibition at 1 µM stood at 97% against FGFR1(h) and 76% against KDR(h).

For `Cc1cc2c(F)c(Oc3ncnc(Nc4ccc(C5CCNCC5)cc4)c3C#N)ccc2[nH]1` [Compound 30], the inhibition at 1 µM on FGFR1(h) is 91%; at KDR(h) it was 94%.

The molecule `CCC(=O)Nc1cccc(Nc2ncnc(Oc3cc(F)c4[nH]c(C)cc4c3F)c2C#N)c1` [Compound 52] gave a GI50 in the assay with KG1a of 174 nM. Further, the values for the inhibition at 1 µM against FGFR1(h) and against KDR(h) were 101% and 91%, respectively.

As for `Cc1cc2c(F)c(Oc3ncnc(Nc4ccc(N5C[C@@H](C)N[C@@H](C)C5)c(F)c4)c3C#N)ccc2[nH]1` [Compound 16], in the assay on KG1a, the GI50 amounted to 15 nM. In addition, the inhibition at 1 µM is 100% against FGFR1(h) and 96% against KDR(h).

For the molecule `CCOc1ccc(Nc2ncnc(Oc3ccc4[nH]c(C)cc4c3F)c2C#N)cc1` [Compound 29], the inhibition at 1 µM against FGFR1(h) came out at 91%; on KDR(h) it was 95%.

Consider `Cc1cc2c(F)c(Oc3ncnc(Nc4ccc(C(N)=O)cc4)c3C#N)cc(F)c2[nH]1` [Compound 36], for which growth in the assay on KG1a was halved (GI50) at 182 nM. Besides, the inhibition at 1 µM is 99% at FGFR1(h) and 67% against KDR(h).

Take `CNC(=O)c1ccc(Nc2ncnc(Oc3cc(F)c4[nH]c(C)cc4c3F)c2C#N)cc1` [Compound 37]: the inhibition at 1 µM against FGFR1(h) amounted to 99%; against KDR(h) it was 70%.

For `Cc1cc2c(F)c(Oc3ncnc(Nc4ccc(C(=O)N(C)C)cc4)c3C#N)cc(F)c2[nH]1` [Compound 38], the inhibition at 1 µM was 90% against FGFR1(h) and 73% at KDR(h).

`Cc1cc2c(F)c(Oc3ncnc(Nc4ccc(N5CCN(CC(F)(F)F)CC5)cc4)c3C#N)ccc2[nH]1` [Compound 18]: the inhibition at 1 µM against FGFR1(h) was 76%; against KDR(h), 92%.

For `Cc1cc2c(F)c(Oc3ncnc(Nc4ccc([N+](=O)[O-])cc4)c3C#N)cc(F)c2[nH]1` [Compound 44], the inhibition at 1 µM on FGFR1(h) came out at 41%; against KDR(h), 14%.

Take `Cc1cc2c(F)c(Oc3ncnc(Nc4ccc(N5CCN(CC(F)(F)F)CC5)cc4)c3C#N)cc(F)c2[nH]1` [Compound 20]: the inhibition at 1 µM was determined as 70% at FGFR1(h) and 42% at KDR(h).

Regarding `Cc1cc2c(F)c(Oc3ncnc(Nc4ccc(N5CCN(C)CC5)c(F)c4)c3C#N)ccc2[nH]1` [Compound 2], the concentration for 50% growth inhibition (GI50) with KG1a was 62 nM. Also, the inhibition at 1 µM on FGFR1(h) came to 100%; against KDR(h), 96%.

For `CCN1CCN(c2cccc(Nc3ncnc(Oc4ccc5[nH]c(C)cc5c4F)c3C#N)c2)CC1` [Compound 22], in the assay with KG1a, it took 196 nM to inhibit growth by half (GI50). Besides, the inhibition at 1 µM was found to be 100% against FGFR1(h) and 96% on KDR(h).

As for `Cc1cc2c(F)c(Oc3ncnc(N4CCN(C)CC4)c3C#N)ccc2[nH]1` [Compound 3], the inhibition at 1 µM against FGFR1(h) was determined as 1%; on KDR(h), 4%.

For the molecule `Cc1cc2c(F)c(Oc3ncnc(Nc4ccc(N5CCCS5(=O)=O)cc4)c3C#N)ccc2[nH]1` [Compound 28], in the assay with KG1a, the GI50 worked out at 226 nM. In addition, the inhibition at 1 µM at FGFR1(h) was found to be 99%; against KDR(h), 96%.

Turning to `Cc1cc2c(F)c(Oc3ncnc(Nc4ccc(Cl)cc4)c3C#N)cc(F)c2[nH]1` [Compound 40], the inhibition at 1 µM was 78% against FGFR1(h) and 20% against KDR(h).

On to `Cc1cc2c(F)c(Oc3ncnc(Nc4ccc(N5CCN(C)CC5)c(C(F)(F)F)c4)c3C#N)ccc2[nH]1` [Compound 7], for which the values for the inhibition at 1 µM against FGFR1(h) and on KDR(h) were 49% and 94%, respectively.

As for `Cc1cc2c(F)c(Oc3ncnc(Nc4ccc(CN5CCNCC5)cc4)c3C#N)ccc2[nH]1` [Compound 10], the figures for the inhibition at 1 µM on FGFR1(h) and against KDR(h) were 34% and 23%, respectively.

Consider `Cc1cc2c(F)c(Oc3ncnc(Nc4ccc(N5CCCC5=O)cc4)c3C#N)cc(F)c2[nH]1` [Compound 41], for which, in the assay with KG1a, it took 180 nM to inhibit growth by half (GI50). The inhibition at 1 µM against FGFR1(h) came to 101%; against KDR(h) it was 96%.

Consider `Cc1cc2c(F)c(Oc3ncnc(Nc4ccc5[nH]ccc5c4)c3C#N)cc(F)c2[nH]1` [Compound 42], for which the GI50 in the assay on KG1a came to 35 nM. Further, the inhibition at 1 µM was found to be 101% at FGFR1(h) and 96% on KDR(h).

`Cc1cc2c(F)c(Oc3ncnc(Nc4ccc(NC(=O)C5CC5)cc4)c3C#N)cc(F)c2[nH]1` [Compound 35] had a GI50 in the assay with KG1a of 78 nM. Also, the results for the inhibition at 1 µM at FGFR1(h) and at KDR(h) were 100% and 95%, respectively.

Molecule `CCN1CCN(c2ccc(Nc3ncnc(Oc4ccc5[nH]c(C)cc5c4F)c3C#N)cc2F)CC1` [Compound 8] yielded a GI50 with KG1a of 250 nM. Further, the inhibition at 1 µM against FGFR1(h) stood at 97%; against KDR(h), 96%.

For the molecule `CC(=O)N(C)c1ccc(Nc2ncnc(Oc3cc(F)c4[nH]c(C)cc4c3F)c2C#N)cc1` [Compound 32], the inhibition at 1 µM worked out at 92% at FGFR1(h) and 69% against KDR(h).

With `Cc1cc2c(F)c(Oc3ncnc(Nc4ccc(N5CCCCC5)cc4)c3C#N)ccc2[nH]1` [Compound 24], the inhibition at 1 µM against FGFR1(h) worked out at 86%; against KDR(h), 95%.

`COc1cc(N2CCN(C)CC2)ccc1Nc1ncnc(Oc2ccc3[nH]c(C)cc3c2F)c1C#N` [Compound 1] displayed a GI50 in the assay with KG1a of 49 nM. Also, the inhibition at 1 µM was 99% on FGFR1(h) and 96% against KDR(h).

Regarding `Cc1cc2c(F)c(Oc3ncnc(Nc4ccc(-n5ccnc5)cc4)c3C#N)ccc2[nH]1` [Compound 12], the inhibition at 1 µM is 56% against FGFR1(h) and 67% against KDR(h).

Take `Cc1cc2c(F)c(Oc3ncnc(Nc4ccc(C#N)cc4)c3C#N)cc(F)c2[nH]1` [Compound 55]: the figures for the inhibition at 1 µM at FGFR1(h) and against KDR(h) were 55% and 6%, respectively.

In the assay with KG1a, `Cc1cc2c(F)c(Oc3ncnc(Nc4ccc(N5CCC(N(C)C)CC5)cc4)c3C#N)ccc2[nH]1` [Compound 11] returned a GI50 of 25 nM. The values for the inhibition at 1 µM against FGFR1(h) and against KDR(h) were 100% and 96%, respectively.

`Cc1cc2c(F)c(Oc3ncnc(Nc4ccc(N5CCNCC5)c(F)c4)c3C#N)ccc2[nH]1` [Compound 9] yielded a 50% growth inhibitory concentration (GI50) in the assay with KG1a of 314 nM. Besides, the inhibition at 1 µM against FGFR1(h) turned out to be 100%; at KDR(h) it was 96%.
